Columns and labels:
Rattus norvegicus [1] = assay: Inhibitory activity determined by experimentally-induced conflict test in rats after oral administration; format: functional; conditions: read-out: MED
Rattus norvegicus [2] = assay: Inhibition of experimentally-induced conflict in rats following i.p. administration.; format: functional; conditions: ip, read-out: MED
Mus musculus [3] = assay: In vivo inhibitory activity against metrazole-induced seizures in mice by peroral administration; format: functional; conditions: po
[4] = target: GABA-A receptor; anion channel (Rattus norvegicus) (UniProt O09028+P15431+P18506+P18508+P19969+P20236+P23574+P23576+P28471+P28473+P30191+P62813+P63079+P63138+Q91ZM7+Q9ES14); assay: GABA shift which is the ratio of binding in the absence and presence of GABA (1 mM) was determined; format: protein-complex assay
Mus musculus [5] = assay: In vivo inhibitory activity against metrazole-induced seizures in mice by intraperitoneal administration; format: functional; conditions: ip
[6] = target: GABA-A receptor; anion channel; assay: In vitro inhibitory against Gamma-aminobutyric acid A receptor from rat cerebral cortex using [3H]flunitrazepam as the radioligand; format: tissue-based

Compound	minimal effective dose (Rattus norvegicus [1])	minimal effective dose (Rattus norvegicus [2])	ED50 (Mus musculus [3])	GS [4]	ED50 (Mus musculus [5])	IC50 [6]
O=C(Nc1ccccc1)C1=C(O)CCn2c1nc1ccc(Cl)cc12	30 mg/kg	> 10 mg/kg	> 30 mg/kg	2.1	> 10 mg/kg	174 nM
O=C(Nc1ccccc1F)C1=C(O)CCn2c1nc1c(F)c(F)ccc12	10 mg/kg	–	0.2 mg/kg	1.7	0.2 mg/kg	1.4 nM
O=C(Nc1ccccc1F)C1=C(O)CCn2c1nc1c(F)cc(F)cc12	> 10 mg/kg	–	> 1 mg/kg	1.2	> 1 mg/kg	19.8 nM
O=C(Nc1ccccc1F)C1=C(O)CCn2c1nc1ncccc12	> 30 mg/kg	10 mg/kg	10 mg/kg	2.7	1 mg/kg	3.5 nM
Cc1cccc2c1nc1n2CCC(O)=C1C(=O)Nc1ccccc1F	> 30 mg/kg	10 mg/kg	10 mg/kg	1.5	1 mg/kg	96.3 nM
O=C(Nc1ccccc1F)C1=C(O)CCn2c1nc1ccc3ccccc3c12	> 10 mg/kg	–	> 30 mg/kg	–	> 1 mg/kg	> 1000 nM
COc1cccc2c1nc1n2CCC(O)=C1C(=O)Nc1c(F)cccc1F	–	–	–	3.7	–	156 nM
O=C(Nc1ccccc1)C1=C(O)CCn2c1nc1cc(Cl)ccc12	> 30 mg/kg	10 mg/kg	20 mg/kg	1.6	1 mg/kg	65.6 nM
O=C(Nc1c(F)cccc1F)C1=C(O)CCn2c1nc1c(Cl)cccc12	> 10 mg/kg	10 mg/kg	10 mg/kg	1.7	0.3 mg/kg	1.1 nM
O=C(Nc1ccccc1F)C1=C(O)CCn2c1nc1cccc(O)c12	> 30 mg/kg	> 1 mg/kg	> 30 mg/kg	2.8	> 1 mg/kg	14 nM
O=C(Nc1ccccc1F)C1=C(O)CCn2c1nc1c3ccccc3ccc12	> 10 mg/kg	–	> 30 mg/kg	2.8	> 1 mg/kg	154 nM
COc1cccc2c1nc1n2CCC(O)=C1C(=O)Nc1ccccc1F	–	–	–	1.4	–	7.8 nM
CN1C(=O)CN=C(c2ccccc2)c2cc(Cl)ccc21 [DIAZEPAM]	10 mg/kg	5 mg/kg	0.5 mg/kg	2.2	0.11 mg/kg	–
O=C(Nc1ccccc1F)C1=C(O)CCn2c1nc1cccnc12	> 30 mg/kg	> 10 mg/kg	> 10 mg/kg	1.3	> 10 mg/kg	291 nM
O=C(Nc1c(F)cccc1F)C1=C(O)CCn2c1nc1cnccc12	3 mg/kg	–	–	2.4	> 10 mg/kg	17.7 nM
O=C(Nc1c(F)cccc1F)C1=C(O)CCn2c1nc1cc(F)ccc12	3 mg/kg	3 mg/kg	3 mg/kg	2.2	0.3 mg/kg	6.3 nM
COc1ccc2c(c1)nc1n2CCC(O)=C1C(=O)Nc1ccccc1F	> 30 mg/kg	> 10 mg/kg	> 10 mg/kg	1.2	> 10 mg/kg	6.1 nM

Compound	minimal effective dose (Rattus norvegicus [1])	minimal effective dose (Rattus norvegicus [2])	ED50 (Mus musculus [3])	GS [4]	ED50 (Mus musculus [5])	IC50 [6]
O=C(Nc1ccccc1F)C1=C(O)CCn2c1nc1cc3ccccc3cc12	> 10 mg/kg	10 mg/kg	> 30 mg/kg	1	1 mg/kg	17 nM
O=C(Nc1c(F)cccc1F)C1=C(O)CCn2c1nc1ccc(F)c(F)c12	> 10 mg/kg	–	> 1 mg/kg	1.7	> 1 mg/kg	66.2 nM
COc1ccc2c(c1)nc1n2CCC(O)=C1C(=O)Nc1ccccc1	> 30 mg/kg	> 10 mg/kg	> 10 mg/kg	2.5	3 mg/kg	39.5 nM
O=C(Nc1ccccc1)C1=C(O)CCn2c1nc1ncccc12	30 mg/kg	> 10 mg/kg	< 30 mg/kg	3	3 mg/kg	8.3 nM
O=C(Nc1c(F)cccc1F)C1=C(O)CCn2c1nc1c(F)cc(F)cc12	> 10 mg/kg	–	> 1 mg/kg	2.4	> 1 mg/kg	30.1 nM
O=C(Nc1ccccc1F)C1=C(O)CCn2c1nc1cc(F)ccc12	> 30 mg/kg	10 mg/kg	> 30 mg/kg	1.8	< 1 mg/kg	1.9 nM
O=C(Nc1ccccc1F)C1=C(O)CCn2c1nc1cc(Cl)ccc12	> 10 mg/kg	10 mg/kg	~30 mg/kg	1.8	1 mg/kg	5.1 nM
O=C(Nc1ccccc1)C1=C(O)CCn2c1nc1cc(O)ccc12	> 30 mg/kg	> 30 mg/kg	> 30 mg/kg	1.1	> 30 mg/kg	40.5 nM
O=C(Nc1ccccc1F)C1=C(O)CCn2c1nc1ccc(F)c(F)c12	> 10 mg/kg	–	> 1 mg/kg	2.5	> 1 mg/kg	857 nM
O=C(Nc1ccccc1F)C1=C(O)CCn2c1nc1cc(C(F)(F)F)ccc12	> 10 mg/kg	–	–	4.7	1 mg/kg	184 nM
Cc1cccc2c1nc1n2CCC(O)=C1C(=O)Nc1ccccc1	> 30 mg/kg	> 10 mg/kg	> 10 mg/kg	2.8	~1 mg/kg	10.1 nM
O=C(Nc1ccccc1)C1=C(O)CCn2c1nc1cccnc12	> 30 mg/kg	> 10 mg/kg	> 10 mg/kg	2.1	> 10 mg/kg	4380 nM
O=C(Nc1c(F)cccc1F)C1=C(O)CCn2c1nc1c(F)c(F)ccc12	3 mg/kg	–	0.2 mg/kg	1.4	0.2 mg/kg	1.1 nM
O=C(Nc1c(F)cccc1F)C1=C(O)CCn2c1nc1cc(Cl)ccc12	10 mg/kg	10 mg/kg	10 mg/kg	2.2	1 mg/kg	6.3 nM
O=C(Nc1c(F)cccc1F)C1=C(O)CCn2c1nc1ncccc12	> 10 mg/kg	> 10 mg/kg	30 mg/kg	1.8	3 mg/kg	30.1 nM
O=C(Nc1ccccc1F)C1=C(O)CCn2c1nc1c(O)cccc12	> 10 mg/kg	–	–	3	–	10.4 nM
O=C(Nc1ccccc1F)C1=C(O)CCn2c1nc1c(Cl)cccc12	> 10 mg/kg	10 mg/kg	> 30 mg/kg	1.8	1 mg/kg	7.1 nM

— ChEMBL document CHEMBL1131732, “Potential anxiolytic agents. 3. Novel A-ring modified pyrido[1,2-a]benzimidazoles” (Bioorg Med Chem Lett, 1999)
